Measurements: US8933103B2, “Pyridone derivatives” (Daiichi Sankyo Company, Limited, priority 2012, dated 2015)

Biological target: T1, AXL (fusion protein of amino acids 464-885 of the intracellular domain of human AXL with glutathione transferase) (Homo sapiens, UniProt P30530)
T1 sequence (P30530 464-885 isoform P30530-2): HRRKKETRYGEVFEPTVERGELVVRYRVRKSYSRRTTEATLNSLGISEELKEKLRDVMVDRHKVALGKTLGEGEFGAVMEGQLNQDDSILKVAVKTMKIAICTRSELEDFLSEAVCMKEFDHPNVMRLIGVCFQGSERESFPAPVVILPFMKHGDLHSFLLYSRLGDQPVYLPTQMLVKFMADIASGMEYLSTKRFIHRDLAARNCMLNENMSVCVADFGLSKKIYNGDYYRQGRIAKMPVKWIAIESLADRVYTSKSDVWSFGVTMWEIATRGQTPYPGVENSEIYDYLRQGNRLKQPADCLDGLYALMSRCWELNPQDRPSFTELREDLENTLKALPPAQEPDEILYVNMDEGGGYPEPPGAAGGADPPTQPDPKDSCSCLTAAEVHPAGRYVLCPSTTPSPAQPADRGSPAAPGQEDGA
Assay: Cell-Free Axl Kinase Inhibitory Activity
Experimental: Next, the test compound was diluted with DMSO, and 1 μl of this diluted solution was added to each well.
Five microliters of this solution were added to each well to initiate a kinase reaction. The plate was incubated at 28° C. for 1.5 hours, and 40 μl of a termination buffer (100 mM HEPES (pH 7.4), 0.015% Brij-35, 40 mM EDTA, 0.1% Coating Reagent 3) was added to each well to terminate the reaction.
The substrate peptide and the phosphorylated peptide in the reaction solution were separated and quantified by EZ Reader II (Caliper Life Sciences).
IC50 was determined from inhibition data for 12 test compound concentrations by nonlinear regression (four-parameter logistic regression) using the following formula.

SMILES	IC50 [nM]
CC(O)Cn1cc(-c2cnc(N)c(-c3ccc(NC(=O)c4cn(CCF)cc(-c5ccc(F)cc5)c4=O)cc3)c2)cn1 (racemic) [Example 63, N-(4-{2-Amino-5-[1-(2-hydroxypropyl)-1H-pyrazol-4-yl]pyridin-3-yl}phenyl)-1-(2-fluoroethyl)-5-(4-fluorophenyl)-4-oxo-1,4-dihydropyridine-3-carboxamide]	1 to 10
COc1ccc(-c2cnc(N)c(-c3ccc(NC(=O)c4cn(C)cc(-c5ccc(F)cc5)c4=O)cc3)c2)cc1OC [Example 2, N-{4-[2-Amino-5-(3,4-dimethoxyphenyl)pyridin-3-yl]phenyl}-5-(4-fluorophenyl)-1-methyl-4-oxo-1,4-dihydropyridine-3-carboxamide]	1 to 10
CCn1cc(C(=O)Nc2ccc(-c3cc(-c4ccc(OC)c(OC)c4)cnc3N)cc2)c(=O)c(-c2ccc(F)cc2)c1 [Example 3, N-{4-[2-Amino-5-(3,4-dimethoxyphenyl)pyridin-3-yl]phenyl}-1-ethyl-5-(4-fluorophenyl)-4-oxo-1,4-dihydropyridine-3-carboxamide]	0.1 to 1
COc1ccc(-c2cnc(N)c(-c3ccc(NC(=O)c4cn(C(C)C)cc(-c5ccc(F)cc5)c4=O)cc3)c2)cc1OC [Example 4, N-{4-[2-Amino-5-(3,4-dimethoxyphenyl)pyridin-3-yl]phenyl}-5-(4-fluorophenyl)-4-oxo-1-(propan-2-yl)-1,4-dihydropyridine-3-carboxamide]	1 to 10
COCCn1cc(C(=O)Nc2ccc(-c3cc(-c4ccc(OC)c(OC)c4)cnc3N)cc2)c(=O)c(-c2ccc(F)cc2)c1 [Example 5, N-{4-[2-Amino-5-(3,4-dimethoxyphenyl)pyridin-3-yl]phenyl}-5-(4-fluorophenyl)-1-(2-methoxyethyl)-4-oxo-1,4-dihydropyridine-3-carboxamide]	0.1 to 1
COc1ccc(-c2cnc(N)c(-c3ccc(NC(=O)c4cn(CCF)cc(-c5ccc(F)cc5)c4=O)cc3)c2)cc1OC [Example 8, N-{4-[2-Amino-5-(3,4-dimethoxyphenyl)pyridin-3-yl]phenyl}-1-(2-fluoroethyl)-5-(4-fluorophenyl)-4-oxo-1,4-dihydropyridine-3-carboxamide]	1 to 10
COc1ccc(-c2cnc(N)c(-c3ccc(NC(=O)c4cn(Cc5ccccc5)cc(-c5ccc(F)cc5)c4=O)cc3)c2)cc1OC [Example 10, N-{4-[2-Amino-5-(3,4-dimethoxyphenyl)pyridin-3-yl]phenyl}-1-benzyl-5-(4-fluorophenyl)-4-oxo-1,4-dihydropyridine-3-carboxamide]	1 to 10
COc1ccc(-c2cnc(N)c(-c3ccc(NC(=O)c4cn(Cc5ccc(F)cc5)cc(-c5ccc(F)cc5)c4=O)cc3)c2)cc1OC [Example 11, N-{4-[2-Amino-5-(3,4-dimethoxyphenyl)pyridin-3-yl]phenyl}-1-(4-fluorobenzyl)-5-(4-fluorophenyl)-4-oxo-1,4-dihydropyridine-3-carboxamide]	0.1 to 1
COc1ccc(-c2cnc(N)c(-c3ccc(NC(=O)c4cn(Cc5ccccn5)cc(-c5ccc(F)cc5)c4=O)cc3)c2)cc1OC [Example 12, N-{4-[2-Amino-5-(3,4-dimethoxyphenyl)pyridin-3-yl]phenyl}-5-(4-fluorophenyl)-4-oxo-1-(pyridin-2-ylmethyl)-1,4-dihydropyridine-3-carboxamide]	0.1 to 1
COc1ccc(-c2cnc(N)c(-c3ccc(NC(=O)c4cn(Cc5ccncc5)cc(-c5ccc(F)cc5)c4=O)cc3)c2)cc1OC [Example 13, N-{4-[2-Amino-5-(3,4-dimethoxyphenyl)pyridin-3-yl]phenyl}-5-(4-fluorophenyl)-4-oxo-1-(pyridin-4-ylmethyl)-1,4-dihydropyridine-3-carboxamide]	0.1 to 1
CNC(=O)Cn1cc(C(=O)Nc2ccc(-c3cc(-c4ccc(OC)c(OC)c4)cnc3N)cc2)c(=O)c(-c2ccc(F)cc2)c1 [Example 15, N-{4-[2-Amino-5-(3,4-dimethoxyphenyl)pyridin-3-yl]phenyl}-5-(4-fluorophenyl)-1-[2-(methylamino)-2-oxoethyl]-4-oxo-1,4-dihydropyridine-3-carboxamide]	0.1 to 1
COc1ccc(-c2cnc(N)c(-c3ccc(NC(=O)c4cn(CC(=O)N(C)C)cc(-c5ccc(F)cc5)c4=O)cc3)c2)cc1OC [Example 16, N-{4-[2-Amino-5-(3,4-dimethoxyphenyl)pyridin-3-yl]phenyl}-1-[2-(dimethylamino)-2-oxoethyl]-5-(4-fluorophenyl)-4-oxo-1,4-dihydropyridine-3-carboxamide]	1 to 10
COc1ccc(-c2cnc(N)c(-c3ccc(NC(=O)c4cn(CC(F)(F)OC)cc(-c5ccc(F)cc5)c4=O)cc3)c2)cc1OC [Example 17, N-{4-[2-Amino-5-(3,4-dimethoxyphenyl)pyridin-3-yl]phenyl}-1-(2,2-difluoro-2-methoxyethyl)-5-(4-fluorophenyl)-4-oxo-1,4-dihydropyridine-3-carboxamide]	0.1 to 1
COc1ccc(-c2cnc(N)c(-c3ccc(NC(=O)c4cn(CCF)cc(-c5ccccc5)c4=O)cc3)c2)cc1OC [Example 19, N-{4-[2-Amino-5-(3,4-dimethoxyphenyl)pyridin-3-yl]phenyl}-1-(2-fluoroethyl)-4-oxo-5-phenyl-1,4-dihydropyridine-3-carboxamide]	1 to 10
COc1ccc(-c2cnc(N)c(-c3ccc(NC(=O)c4cn(CC(F)(F)F)cc(-c5ccccc5)c4=O)cc3)c2)cc1OC [Example 20, N-{4-[2-Amino-5-(3,4-dimethoxyphenyl)pyridin-3-yl]phenyl}-4-oxo-5-phenyl-1-(2,2,2-trifluoroethyl)-1,4-dihydropyridine-3-carboxamide]	1 to 10
COc1ccc(-c2cnc(N)c(-c3ccc(NC(=O)c4cn(CC(F)(F)F)cc(-c5ccccc5F)c4=O)cc3)c2)cc1OC [Example 21, N-{4-[2-Amino-5-(3,4-dimethoxyphenyl)pyridin-3-yl]phenyl}-5-(2-fluorophenyl)-4-oxo-1-(2,2,2-trifluoroethyl)-1,4-dihydropyridine-3-carboxamide]	1 to 10
COc1ccc(-c2cnc(N)c(-c3ccc(NC(=O)c4cn(CC(F)(F)F)cc(-c5ccc(F)nc5)c4=O)cc3)c2)cc1OC [Example 23, N-{4-[2-Amino-5-(3,4-dimethoxyphenyl)pyridin-3-yl]phenyl}-6′-fluoro-4-oxo-1-(2,2,2-trifluoroethyl)-1,4-dihydro-3,3′-bipyridine-5-carboxamide]	1 to 10
COc1ccc(-c2cnc(N)c(-c3ccc(NC(=O)c4cn(CC(F)(F)F)cc(-c5ccc(C)cc5)c4=O)cc3)c2)cc1OC [Example 24, N-{4-[2-Amino-5-(3,4-dimethoxyphenyl)pyridin-3-yl]phenyl}-5-(4-methylphenyl)-4-oxo-1-(2,2,2-trifluoroethyl)-1,4-dihydropyridine-3-carboxamide]	0.1 to 1
COc1ccc(-c2cnc(N)c(-c3ccc(NC(=O)c4cn(CC(F)(F)F)cc(-c5ccc(Cl)cc5)c4=O)cc3)c2)cc1OC [Example 25, N-{4-[2-Amino-5-(3,4-dimethoxyphenyl)pyridin-3-yl]phenyl}-5-(4-chlorophenyl)-4-oxo-1-(2,2,2-trifluoroethyl)-1,4-dihydropyridine-3-carboxamide]	1 to 10
COc1ccc(-c2cnc(N)c(-c3ccc(NC(=O)c4cn(Cc5ccc(F)cc5)cc(C(=O)N5CCCC5)c4=O)cc3)c2)cc1OC [Example 26, N-{4-[2-Amino-5-(3,4-dimethoxyphenyl)pyridin-3-yl]phenyl}-1-(4-fluorobenzyl)-4-oxo-5-(pyrrolidin-1-ylcarbonyl)-1,4-dihydropyridine-3-carboxamide]	0.1 to 1
COc1ccc(-c2cnc(N)c(-c3ccc(NC(=O)c4cn(Cc5ccc(F)cc5)cc(C(=O)N5C[C@@H](C)O[C@@H](C)C5)c4=O)cc3)c2)cc1OC [Example 27, N-{4-[2-Amino-5-(3,4-dimethoxyphenyl)pyridin-3-yl]phenyl}-5-{[(2R,6S)-2,6-dimethylmorpholin-4-yl]carbonyl}-1-(4-fluorobenzyl)-4-oxo-1,4-dihydropyridine-3-carboxamide]	0.1 to 1
COc1ccc(-c2cnc(N)c(-c3ccc(NC(=O)c4cn(Cc5ccc(F)cc5)cc(-c5nnc(C)o5)c4=O)cc3)c2)cc1OC [Example 28, N-{4-[2-Amino-5-(3,4-dimethoxyphenyl)pyridin-3-yl]phenyl}-1-(4-fluorobenzyl)-5-(5-methyl-1,3,4-oxadiazol-2-yl)-4-oxo-1,4-dihydropyridine-3-carboxamide]	0.1 to 1
COc1ccc(-c2cnc(N)c(-c3ccc(NC(=O)c4cn(CC(F)(F)F)cc(-c5ccc(F)cc5)c4=O)cc3F)c2)cc1OC [Example 29, N-{4-[2-Amino-5-(3,4-dimethoxyphenyl)pyridin-3-yl]-3-fluorophenyl}-5-(4-fluorophenyl)-4-oxo-1-(2,2,2-trifluoroethyl)-1,4-dihydropyridine-3-carboxamide]	0.1 to 1
COc1cc(-c2cnc(N)c(-c3ccc(NC(=O)c4cn(CC(F)(F)F)cc(-c5ccc(F)cc5)c4=O)cc3)c2)ccc1O [Example 37, N-{4-[2-Amino-5-(4-hydroxy-3-methoxyphenyl)pyridin-3-yl]phenyl}-5-(4-fluorophenyl)-4-oxo-1-(2,2,2-trifluoroethyl)-1,4-dihydropyridine-3-carboxamide]	1 to 10
COCCOc1ccc(-c2cnc(N)c(-c3ccc(NC(=O)c4cn(CC(F)(F)F)cc(-c5ccc(F)cc5)c4=O)cc3)c2)cc1OC [Example 38, N-(4-{2-Amino-5-[3-methoxy-4-(2-methoxyethoxy)phenyl]pyridin-3-yl}phenyl)-5-(4-fluorophenyl)-4-oxo-1-(2,2,2-trifluoroethyl)-1,4-dihydropyridine-3-carboxamide]	0.1 to 1
